Results as given in patent US9428472B2, “Methods of treating bacterial infections with 1,2-benzisothiazolinone and isoindolinone derivatives” (GEORGETOWN UNIVERSITY, priority 2011, dated 2016).
Values after ≈ are worked out from the molar mass of the structure shown. Read-outs that look alike come from different tables or passages of the source.

Key:
Proteus sp 35651 = experiment: Disc-diffusion method (disc inhibition testing); format: cell-based; conditions: Conc. 10/25/50 μg
Description: (§1) An inoculum of the tested organism was made from an 18-24 h agar plate and was grown overnight to 0.5 McFarland standard. This suspension was then spread on a fresh Mueller-Hinton plate in the following manner: Optimally, within 15 minutes after adjusting the turbidity of the inoculum suspension, a sterile cotton swab was dipped the suspension. The swab was rotated several times and pressed firmly on the inside wall of the tube to remove excess inoculum. The dried surface of the Mueller-Hinton agar plate was then inoculated by streaking the swab over the entire sterile agar surface. […] A control disc with the same DMSO % as the test discs were also applied to the plate. The plates were inverted after 15 minutes and were placed in an incubator set to 35° C. After 16-18 h, the plates were examined. The circular zones of inhibition were evaluated by measuring the diameter of the circular margin with no obvious visible growth. The inhibition diameters of standardized drugs against the tested organism were also determined simultaneously and are compared to those mentioned in CLSI M02-A10.

Klebsiella oxytoca = experiment: Disc-diffusion method (disc inhibition testing); format: cell-based; conditions: Conc. 10/25/50 μg
Description: as §1

Pseudomonas aeroginosa = experiment: Disc-diffusion method (disc inhibition testing); format: cell-based; conditions: Conc. 10/25/50 μg
Description: as §1

Aeromonas sp = experiment: Disc-diffusion method (disc inhibition testing); format: cell-based; conditions: Conc. 10/25/50 μg
Description: as §1

E. Coli 25922 = experiment: Disc-diffusion method (disc inhibition testing); format: cell-based; conditions: Conc. 10/25/50 μg
Description: as §1

Klebsiella pnemonia 1705 = experiment: Disc-diffusion method (disc inhibition testing); format: cell-based; conditions: Conc. 10/25/50 μg
Description: as §1

Shigella sp = experiment: Disc-diffusion method (disc inhibition testing); format: cell-based; conditions: Conc. 10/25/50 μg
Description: as §1

Streptococcus pneumoniae = experiment: Disc-diffusion method (disc inhibition testing); format: cell-based; conditions: Conc. 10/25/50 μg
Description: as §1

[1] = system: Staphylococcus saprophyticus, Staphylococcus aureus, Micrococcus sp., Enterococcus fecalis and Group A Streptococcus; experiment: Broth microdilution method, MIC-50 over the tested organisms; format: cell-based
Description: (§2) The in vitro toxicity of these compounds was determined by the neutral red (both compounds I-1 and I-2) and MTT (3-(4,5-Dimethylthiazol-2-yl)-2,5-diphenyltetrazolium bromide) assay (compound I-1) in human hepatic cell lines Huh7 and HepG2.
96 well plates were used to determine the MIC-50 endpoints for most fastidious organisms. The tested compounds were diluted in RPMI to 50 microgram/ml and 0.1 ml was added to the first well. Two-fold dilutions were made in subsequent wells in RPMI to get a range of concentrations from 0.1-50 μg/ml. The volume of diluted compound in each well was 100 microliter. Bacteria were grown in Mueller-Hinton Broth from a single colony from a fresh plate of the tested organism. The broth was grown overnight to 0.5 McFarland standard (10^8 cells) and further diluted in RPMI to get a final inoculum concentration of 5×10^5 CFU/mL. 15 minutes after the inoculum had been standardized as described above, 5 μl of this suspension was inoculated to each well containing 0.1 ml of the tested compound. This plate was then kept at 35° C. for 16-20 h in an ambient air incubator. […] The concentration of inoculum suspension was confirmed by replating on to agar plates. […] The endpoints of standardized drugs are also determined simultaneously and were compared to those mentioned in CLSI M07-08.

[2] = system: Enterococcus fecalis 29212; experiment: Disc-diffusion method (disc inhibition testing); format: cell-based; conditions: read-out: Zone diameter
Description: (§3) An inoculum of the tested organism was made from an 18-24 h agar plate and was grown overnight to 0.5 McFarland standard. This suspension was then spread on a fresh Mueller-Hinton plate in the following manner: Optimally, within 15 minutes after adjusting the turbidity of the inoculum suspension, a sterile cotton swab was dipped the suspension. The swab was rotated several times and pressed firmly on the inside wall of the tube to remove excess inoculum. The dried surface of the Mueller-Hinton agar plate was then inoculated by streaking the swab over the entire sterile agar surface. Discs of sterile filter paper were inoculated with standard amounts of compounds (5, 10 and 25 microgram) and were dried before application on to the streaked plate. A control disc with the same DMSO % as the test discs were also applied to the plate. The plates were inverted after 15 minutes and were placed in an incubator set to 35° C. After 16-18 h, the plates were examined. The circular zones of inhibition were evaluated by measuring the diameter of the circular margin with no obvious visible growth. The inhibition diameters of standardized drugs against the tested organism were also determined simultaneously and are compared to those mentioned in CLSI M02-A10.

Micrococcus sp = experiment: Disc-diffusion method (disc inhibition testing); format: cell-based; conditions: read-out: Zone diameter
Description: as §3

[3] = system: Staphylococcus aureus 25923; experiment: Disc-diffusion method (disc inhibition testing); format: cell-based; conditions: read-out: Zone diameter
Description: as §3

[4] = system: Staphylococcus aureus 29213; experiment: Disc-diffusion method (disc inhibition testing); format: cell-based; conditions: read-out: Zone diameter
Description: as §3

Group A Streptococci = experiment: Disc-diffusion method (disc inhibition testing); format: cell-based; conditions: read-out: Zone diameter
Description: as §3

[5] = system: Staphylocccus saprophyticus; experiment: Disc-diffusion method (disc inhibition testing); format: cell-based; conditions: read-out: Zone diameter
Description: as §3

[6] = system: Enterococcus fecalis 51299 (VRE); experiment: Disc-diffusion method (disc inhibition testing); format: cell-based
Description: as §3

[7] = system: Staphylococcus aureus 43300 (MRSA); experiment: Disc-diffusion method (disc inhibition testing); format: cell-based
Description: as §3

HepG2 = experiment: In vitro toxicity, neutral red cell viability and MTT assays; format: cell-based, human
Description: as §2
(§4) The neutral red cell viability assay and the MTT assays were conducted with the active compounds at defined concentrations in human hepatoma cell lines, Huh7 and HepG2, as described by Repetto et al (Repetto G, Peso A. D. & Zurita J. L., Neutral red uptake assay for the estimation of cell viability/cytotoxicity, Nature Protocols 3, 1125-1131 (2008)) and Mosmann et al (Mosmann T., Rapid colorimetric assay for cellular growth and survival: application to proliferation and cytotoxicity assays, Journal of Immunological Methods 65 (1-2): 55-63, (December 1983)) respectively. The cell cytotoxicity (CC-50) concentrations were calculated for the HepG2 cell line.

Huh7 = experiment: as above; format: cell-based, human
Description: as §2, §4

[8] = system: Gram-positive bacterial organisms; experiment: Screening for antibacterial compounds (disc diffusion method, CSLI M02-A10); format: cell-based
Description: as §3

[9] = neutral red (I-1, I-2) and MTT (I-1)

## O=C(Cn1sc2ccccc2c1=O)Nc1ccccc1Oc1ccccc1 [Compound I-2]
Proteus sp 35651
  Zone diameter: NOT ACTIVE
Klebsiella oxytoca
  Zone diameter: NOT ACTIVE
Pseudomonas aeroginosa
  Zone diameter: NOT ACTIVE
Aeromonas sp
  Zone diameter: NOT ACTIVE
E. Coli 25922
  Zone diameter: NOT ACTIVE
Klebsiella pnemonia 1705
  Zone diameter: NOT ACTIVE
Shigella sp
  Zone diameter: NOT ACTIVE
Streptococcus pneumoniae
  Zone diameter: NOT ACTIVE
[1]; range over the five named organisms, read-out: MIC-50 concentrations
  MIC50: 1 to 15 µg/mL (≈ 2.66 to 39.8 µM)
[1]; range over the tested gram positive pathogens, read-out: MIC-50 values
  MIC50: 1 to 15 µg/mL (≈ 2.66 to 39.8 µM)
[2]; Conc. 10 μg
  zone of inhibition at 10 µg/disc: 14 mm
[2]; Conc. 25 μg
  zone of inhibition at 25 µg/disc: 16 mm
[2]; Conc. 50 μg
  zone of inhibition at 50 µg/disc: 18 mm
Micrococcus sp; Conc. 10 μg
  zone of inhibition at 10 µg/disc: 27 mm
Micrococcus sp; Conc. 25 μg
  zone of inhibition at 25 µg/disc: 28 mm
Micrococcus sp; Conc. 50 μg
  zone of inhibition at 50 µg/disc: 29 mm
[3]; Conc. 10 μg
  zone of inhibition at 10 µg/disc: 18 mm
[3]; Conc. 25 μg
  zone of inhibition at 25 µg/disc: 21 mm
[3]; Conc. 50 μg
  zone of inhibition at 50 µg/disc: 23 mm
[4]; Conc. 10 μg
  zone of inhibition at 10 µg/disc: 16 mm
[4]; Conc. 25 μg
  zone of inhibition at 25 µg/disc: 18 mm
[4]; Conc. 50 μg
  zone of inhibition at 50 µg/disc: 22 mm
Group A Streptococci; Conc. 10 μg
  zone of inhibition at 10 µg/disc: 20 mm
Group A Streptococci; Conc. 25 μg
  zone of inhibition at 25 µg/disc: 24 mm
Group A Streptococci; Conc. 50 μg
  zone of inhibition at 50 µg/disc: 27 mm
[5]; Conc. 10 μg
  zone of inhibition at 10 µg/disc: 22 mm
[5]; Conc. 25 μg
  zone of inhibition at 25 µg/disc: 24 mm
[5]; Conc. 50 μg
  zone of inhibition at 50 µg/disc: 25 mm
[6]; Enterococcus, VRE, Conc. 10 μg, read-out: Zone diameter
  zone of inhibition at 10 µg/disc: 17 mm
[6]; Enterococcus, VRE, Conc. 25 μg, read-out: Zone diameter
  zone of inhibition at 25 µg/disc: 22 mm
[6]; Enterococcus, VRE, Conc. 50 μg, read-out: Zone diameter
  zone of inhibition at 50 µg/disc: 24 mm
[6]; method not named
  activity against Enterococcus fecalis ATCC 51299 (VRE): active
[7]; Staphylococcus aureus, MRSA, Conc. 10 μg, read-out: Zone diameter
  zone of inhibition at 10 µg/disc: 19 mm
[7]; Staphylococcus aureus, MRSA, Conc. 25 μg, read-out: Zone diameter
  zone of inhibition at 25 µg/disc: 19 mm
[7]; Staphylococcus aureus, MRSA, Conc. 50 μg, read-out: Zone diameter
  zone of inhibition at 50 µg/disc: 23 mm
[7]; method not named
  activity against Staphylococcus aureus ATCC 43300 (MRSA): active
HepG2
  concentration up to which no toxicity was shown: ≥ 100 microgram/ml
HepG2; [9]
  in vitro toxicity: Minimal in vitro toxicity
Huh7
  concentration up to which no toxicity was shown: ≥ 100 microgram/ml
Huh7; [9]
  in vitro toxicity: Minimal in vitro toxicity
[8]
  activity against Staphylococcus saprophyticus, Staphylococcus aureus, Micrococcus sp., Enterococcus fecalis and Group A Streptococcus: showed activity
[8]; disc diffusion screening
  antibiotic activity against Gram-positive bacterial organisms: antibiotic activity
